The assay concerns the target T1, rat glycine transporter subtype 2 (GlyT2) (Rattus norvegicus, UniProt P58295).
T1 construct: expressed in transfected cells; host or cells: CHO cells
T1 sequence (P58295 1-799): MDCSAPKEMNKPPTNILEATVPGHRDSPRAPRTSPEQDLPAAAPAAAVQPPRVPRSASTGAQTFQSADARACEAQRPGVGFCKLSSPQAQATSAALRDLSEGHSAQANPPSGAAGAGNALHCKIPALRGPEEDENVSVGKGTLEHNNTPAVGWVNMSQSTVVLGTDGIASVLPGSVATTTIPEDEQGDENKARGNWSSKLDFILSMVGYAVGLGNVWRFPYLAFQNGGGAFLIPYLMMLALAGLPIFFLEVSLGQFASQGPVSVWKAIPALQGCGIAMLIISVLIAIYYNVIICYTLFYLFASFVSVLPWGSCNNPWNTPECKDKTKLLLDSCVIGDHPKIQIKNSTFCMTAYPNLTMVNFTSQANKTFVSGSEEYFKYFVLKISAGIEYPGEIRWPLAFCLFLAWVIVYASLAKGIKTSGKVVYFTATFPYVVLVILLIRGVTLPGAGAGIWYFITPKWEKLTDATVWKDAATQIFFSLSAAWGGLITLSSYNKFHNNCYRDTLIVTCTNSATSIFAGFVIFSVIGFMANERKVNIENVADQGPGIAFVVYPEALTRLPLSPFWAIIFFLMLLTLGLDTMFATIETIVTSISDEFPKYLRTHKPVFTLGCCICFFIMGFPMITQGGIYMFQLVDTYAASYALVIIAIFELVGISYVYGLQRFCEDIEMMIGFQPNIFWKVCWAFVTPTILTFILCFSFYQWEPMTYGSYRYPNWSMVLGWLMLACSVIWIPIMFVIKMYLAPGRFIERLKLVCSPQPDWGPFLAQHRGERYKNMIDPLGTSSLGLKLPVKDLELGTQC
Briefly: Inhibition of glycine transporter 2: 3H-glycine uptake in CHO cells expressing rat GlyT2. In kind it is cell-based. To be noted: GlyT2 inhibitory concentration, 15 min preincubation, 10 nM 3H-glycine, 7 min uptake, read-out: GlyT2 Inhib. How it is done: CHO cells expressing rat glycine transporter subtype 2 (GlyT2) were grown in high glucose Dulbecco's modified Eagle's medium supplemented with 10% bovine fetal serum at 37° C. in a 5% CO2 atmosphere. Subconfluent cells growing in 24- or 96-well plates were washed with PBS, and were preincubated at 37° C. for 15 min with uptake buffer (100 mM NaCl, 2 mM KCl, 1 mM CaCl2, 1 mM MgCl2, 10 mM HEPES, pH 7.5) containing sample compounds. Uptake was initiated by adding prewarmed ^3H-glycine yielding a 10 nM final glycine concentration, and was terminated after 7 min by aspiration of the buffer. Cells were washed 3 times with ice-cold PBS, and radioactivity was determined by scintillation counting using TopCount. GlyT2 inhibitory concentrations for several compounds of Formula I are given below.
Regarding `CCn1nc(C)cc1-c1nnc(SCc2ccccc2)n1-c1ccccc1` [Compound 7, 3-benzylthio-5-(2-ethyl-5-methyl-3-diazolyl)-4-phenyl-1,2,4-triazole], the IC50 was found to be 6600 nM.

For the compound `Clc1cccc(Cl)c1CSc1nnc(-c2cnccn2)s1` [Compound 12, 5-[(2,6-dichlorophenyl)methylthio]-2-(pyrazin-2-yl)-1,3,4-thiadiazole], the IC50 was found to be 900 nM.

Consider `c1ccc(CSc2nnc(CCCCc3nnc(SCc4ccccc4)o3)o2)cc1` [Compound 21, 2,2′-(1,4-butanediyl)bis[5-(benzylthio)-1,3,4-oxadiazole]], for which the IC50 is 1100 nM.
